Tests used:
[1] = Sulfate binding constants, average of the UV-vis and NMR titrations, and E,E − Z,Z comparison
Description: For absorption titration experiments, a freshly prepared stock solution of 1.5 mM E,E-2PyDIG·HOTf in DMSO-d6 was added to a 1 mm quartz cuvette, and a tetramethylammonium sulfate solution (3.6 mM in DMSO-d6) was added, and the solution was mixed. Absorption spectra were collected after each addition using a UV-Visible spectrophotometer at ca. 24° C. For the Z,Z photoisomer, a freshly prepared 1.5 mM 2PyDIG·HOTf sample was irradiated for 1 hour before titration experiments were prepared and carried out in the same manner as for the E,E isomer.
The binding constants from the three UV-Vis titrations were calculated using commercial software based on the changes in the 2PyDIG^+ absorption maximum value at 315 nm and 320 nm for the E,E and Z,Z photoisomers, respectively. Fitting was performed by assigning the 1:0 and 1:2 PyDIG:sulfate adducts as spectra from before addition of sulfate and after 3 molar equivalents of sulfate, respectively.
For ^1H NMR titrations, a freshly prepared stock solution of 1.5 mM 2PyDIG·HOTf in DMSO-d6 was added to twelve NMR tubes, and a tetramethylammonium sulfate solution (10 mM in DMSO-d6) was added in varying stoichiometric amounts. Clean DMSO-d6 was then added to achieve a final volume of 500 μL. Titrations were performed with both a micropipette and a micrometer syringe. For the Z,Z photoisomer, a freshly prepared 1.5 mM 2PyDIG·HOTf sample was irradiated for 1 hour before the six titration experiments were prepared and carried out in the same manner as for the E,E isomer. To ensure that the PyDIG concentration was not changing as a result of precipitation, dimethylsulfone was added as an internal standard to the 1:2 PyDIG:SO4 solution. It was determined that the concentration of PyDIG remained constant throughout the experiment.
The binding constants from the four ^1H NMR titrations were calculated using commercial software based on the changes in the guanidinium —N—H chemical shifts of the 2PyDIG protons. During fitting, only the monoprotonated 2PyDIG cation was considered, as the Bjerrum pair of 2PyDIG cation and triflate in DMSO was estimated to have a Kassociation value of 156 M−^1. Fitting was performed by locking the 1:0 and 1:2 PyDIG:sulfate adducts at known chemical shift values to reduce the number of adjustable parameters to refine. The corresponding speciation and residual plots for each trial made. Attempts to increase the experimental concentration of 2PyDIG·HOTf higher than 1 mM produced solids, which prevented NMR titrations at higher concentrations.

[2] = Photoirradiation, thermal relaxation and cycling monitored by 1H NMR in DMSO-d6; type: physicochemical; details: for time to reach thermal equilibrium: 10 mM, photoirradiated
Description: In a typical photoirradiation NMR experiment, 3 mL of a freshly made deuterated DMSO solution was placed in a quartz cuvette (1 cm×1 cm×4.5 cm), stirred, and irradiated with UV-visible light using an unfiltered super high-pressure mercury lamp with emissions in the long-wave UV region and in the visible region at the yellow, green, blue, and violet wavelengths (254-800 nm). From the irradiated solution, 500 μL aliquots were removed with a micropipette and transferred to NMR tubes. For studies including excess triflate, a stock solution (200 mM) of tetramethylammonium triflate in DMSO-d6 was added before irradiation to obtain the desired concentration. Experiments were carried out in the same fashion as above. All measurements were obtained on the irradiated solutions within 1 hour of irradiation. ^1H spectra were recorded on a Bruker AvanceIII-400 MHz NMR spectrometer equipped with a 5 mm PABBO probe. The residual solvent signal ((CD3)2SO δH=2.50 ppm) was considered as an internal reference to calibrate spectra and the temperature was held at 24° C. The chemical shifts used to monitor photoisomerization were the set of doublets at 8.67 and 8.80 ppm and triplets at 7.54 and 7.68 ppm for the E,E and Z,Z isomers, respectively. […] The sample underwent hydrolysis back to the aldehyde only under forcing conditions of heating the sample at 50° C. for 2 weeks in water, where the aldehyde proton at 9.86 ppm started to resolve.
Cycling studies were performed by irradiating a freshly prepared, 9.94 mM 2PyDIG·HOTf DMSO-d6 solution in an NMR tube at 24° C. After 6 hour, a ^1H NMR spectrum was collected to determine the photoisomerization value, and the sealed NMR tube was placed in a 50° C. oven. The sample was heated statically for 24 hour, at which point the solution was left to cool at room temperature for approximately 30 min, and a ^1H NMR spectrum was collected to determine the thermal relaxation value. This cycling process was repeated three more times.

[3] = Photoswitching in the absence or presence of sulfate (1H NMR, DMSO-d6); type: physicochemical
Description: Photoswitching in the presence of sulfate was performed in one of two methods. In the first method, 0.5 mol ratio (sulfate to 2PyDIG^+) tetramethylammonium sulfate was added to a freshly prepared 10 mM E,E-2PyDIG·HOTf in DMSO-d6 solution in a quartz cuvette. After the addition of sulfate, the solution was irradiated with a UV (Hg lamp) light for 2 hours while stirring. The solution was then heated statically for 36 hours, at which point the solution was left to cool at room temperature for approximately 30 minutes, and a ^1H NMR spectrum was collected. In the second method, a freshly prepared 10 mM E,E-2PyDIG·HOTf in DMSO-d6 solution was irradiated with UV (Hg lamp) light for 2 hours while stirring. Following this, tetramethylammonium sulfate was added in either 0.5 or 1.0 mol ratio (sulfate to 2PyDIG^+). The solution was then heated statically for 36 hours, at which point the solution was left to cool at room temperature for approximately 30 minutes, and a ^1H NMR spectrum was collected. ^1H NMR spectra were collected on 500 μL aliquots of the freshly prepared samples, samples after photoirradiation, and samples after thermal treatment at 50° C. for 36 hours.

[4] = Control, no SO4 added, mol ratio 0
[5] = SO4 added after irradiation, mol ratio 0.5
[6] = SO4 added after irradiation, mol ratio 1.0

## N=C(N/N=C/c1ccccn1)N/N=C/c1ccccn1.O=S(=O)(O)C(F)(F)F [E,E-2PyDIG, bis(2-((E)-pyridin-2-ylmethylene)hydrazineyl)methaniminium trifluoromethanesulfonate]
[1]; Eq. 2, difference of log binding constants of the isomers
  log b11, E,E − Z,Z Difference: 5.40±0.45
[1]; Eq. 3, difference of log binding constants of the isomers
  log b21, E,E − Z,Z Difference: 8.31 ± 0.56
[1]; Eq. 3, precision-weighted average of UV-vis and NMR titrations, DMSO-d6, 24° C.
  log b21, E,E Avg Value: 11.39±0.55
[1]; Eq. 4, difference of log binding constants of the isomers
  log b12, E,E − Z,Z Difference: 7.91 ± 0.76
[1]; as printed in text with unit, average value of Table 2
  log b12 of the 1:2 adduct: 11.91±0.74 M^−1
[1]; stepwise constant, DMSO-d6
  log K12, addition of the second sulfate to the 1:1 adduct: 4.7±1.5
[2]; 1 mM solution, even at elevated temperatures
  time required to reach thermal equilibrium: greater than 20 days
[2]; 1.5 mM (low concentration), UV irradiation, DMSO-d6, 24° C.
  photoconversion to the Z,Z isomer: 95.6±0.4%
[2]; 1.5 mM, UV irradiation
  time to reach photoconversion to the Z,Z isomer: less than 15 min
[2]; 1.5 mM, before UV irradiation, DMSO-d6
  Z,Z isomer initially present: 5.5±0.5%
[2]; 10 mM in DMSO, 6-hour irradiation
  percent Z,Z isomer in cycling, after irradiation: 69%
[2]; 10 mM in DMSO, 24-hour dark equilibration
  percent Z,Z isomer in cycling, after dark equilibration: 25%
[2]; 10 mM solution, UV irradiation
  Z,Z isomer at PSS: 67.7±4.4%
  time to reach PSS: more than 2 hours
[2]; 24° C.
  time to reach thermal equilibrium: 4 days
[2]; 50° C.
  time to reach thermal equilibrium: less than 24 h
[2]; in the presence of triflate
  experimental free energy difference between E,E and Z,Z forms (Eq. 1): 0.5 kcal/mol
[2]; independent of temperature
  equilibrium constant of thermal relaxation back to E,E from Z,Z (Eq. 1): 2.38(8)
[2]; photoirradiated and nonirradiated solutions, thermal relaxation
  E,E isomer at common thermal equilibrium: 70.5±0.9%
[2]; unirradiated, 24° C.
  time to thermally equilibrate, unirradiated E,E isomer: 14 days
[3]; [4]
  Relative Amount of E,E-2PyDIG+, before irradiation: 97.4 ± 0.6%
  Relative Amount of E,E-2PyDIG+, thermal equilibrium: 70.5 ± 0.9%
[3]; Control, no SO4 added, mol ratio 0, PSS
  Relative Amount of E,E-2PyDIG+, after irradiation: 32.3 ± 4.4%
[3]; [5]
  Relative Amount of E,E-2PyDIG+, after irradiation: 33.2 ± 5.3%
  Relative Amount of E,E-2PyDIG+, before irradiation: 95.1 ± 1.4%
  Relative Amount of E,E-2PyDIG+, thermal equilibrium: 93.1 ± 3.3%
[3]; [6]
  Relative Amount of E,E-2PyDIG+, after irradiation: 31.0 ± 4.7%
  Relative Amount of E,E-2PyDIG+, before irradiation: 93.4 ± 2.9%
  Relative Amount of E,E-2PyDIG+, thermal equilibrium: 91.6 ± 1.9%
[3]; SO4 added before irradiation, mol ratio 0.5
  Relative Amount of E,E-2PyDIG+, before irradiation: 91.1 ± 1.2%
[3]; SO4 added before irradiation, mol ratio 0.5, 50° C., 36 hours
  Relative Amount of E,E-2PyDIG+, thermal equilibrium: 91.2 ± 1.4 ^ %
[3]; SO4 added before irradiation, mol ratio 0.5, 50° C., 36 hours, listed as 2PyDIG·HOTf
  Relative Amount of E,E-2PyDIG+, thermal equilibrium: 91.2±1.4%
[3]; SO4 added before irradiation, mol ratio 0.5, 2 hours UV
  Relative Amount of E,E-2PyDIG+, after irradiation: 32.5 ± 3.8 ^ %
[3]; SO4 added before irradiation, mol ratio 0.5, 2 hours UV, listed as 2PyDIG·HOTf
  Relative Amount of E,E-2PyDIG+, after irradiation: 32.5±3.8%
[3]; SO4 added before irradiation, mol ratio 0.5, listed as 2PyDIG·HOTf
  Relative Amount of E,E-2PyDIG+, before irradiation: 92.8±1.4%
[3]; ca. 10 mM 2PyDIG·HOTf in DMSO-d6, before addition of 0.5 mol ratio sulfate
  E,E isomer before sulfate addition, before irradiation: 93.1±1.2%

Reference: patent US12662403B2, “Photoswitchable guanidinium compounds for removal of oxyanions from liquid solutions” (UT-Battelle, LLC, priority 2021, dated 2026)
